Measured values from paper PMC3514653 (Neuromodulation : journal of the International …, 2012).

Assays:
Male beagle dogs = details: dog, in vivo
[1] = dog; intrathecal; cited from earlier work
[2] = dog, in vivo

CSCC[C@@H]1NC(=O)[C@H](CC(C)C)NC(=O)[C@H](CCCNC(=N)N)NC(=O)[C@H](CO)NC(=O)[C@@H]2CSSC[C@@H]3NC(=O)[C@H](CO)NC(=O)CNC(=O)[C@H]([C@@H](C)O)NC(=O)[C@H](CSSC[C@H](N)C(=O)N[C@@H](CCCCN)C(=O)NCC(=O)N[C@@H](CCCCN)C(=O)NCC(=O)N[C@@H](C)C(=O)N[C@@H](CCCCN)C(=O)N2)NC(=O)[C@H](CSSC[C@@H](C(N)=O)NC(=O)[C@H](CCCCN)NC(=O)CNC(=O)[C@H](CO)NC(=O)[C@H](CCCNC(=N)N)NC3=O)NC(=O)[C@H](CC(=O)O)NC(=O)[C@H](Cc2ccc(O)cc2)NC1=O [Ziconotide]
Decreased arousal and activity (remained responsive), dogs affected (Male beagle dogs): All 5 dogs

O=C(c1ccccc1)c1ccc2n1CCC2C(=O)O (stereo not drawn) [ketorolac]
T1/2 (CSF elimination) in this model [1]: 54 min

inulin [[^3H]Inulin]
T1/2 α in LCSF [2]: 9.6 min
